This is an account of results in patent publication US11690858B1, “Neuroprotective mixture for mitigating the harmful effects of ischemic stroke” (Tricerapro Holding, LLC, priority 2018, dated 2023).

Several values for one entry are separate records, joined by “and”; a condition that tells them apart may be missing. Identical values can stand only once.

Data set [1] relates to fluid percussion model of head trauma. The following applies: diffuse neuronal injury; cited from earlier work.
Data set [2] has as its system diffuse anoxia injury model in rats. The following applies: cited from earlier work; for amount of neuronal injury: diffuse anoxia injury model in rats; for entry into the cerebrospinal fluid (CSF): rats.
The subject of data set [3] is rat model of ischemic infarct. To be noted: cited from earlier work.
In data set [4] the test system is rat model of ischemic stroke. Kind of data set: Infarct volumes by treatment groups in a rat model of ischemic stroke. Format: in vivo. On the set-up: unit not given here. To be noted: for Infarct volume, Contra, Average / Infarct volume, Infarct, Average: average of 5 animals; for Infarct volume, Contra / Infarct volume, Infarct: individual animals; for Infarct volume, Contralateral / Infarct volume, Ipsilateral: rounded average. An excerpt: Additional studies using a validated rat model for ischemic stroke have also been conducted. These studies made comparisons in stroke volumes between five different treatment groups: a. Ischemic stroke model in aged rats; no reperfusion; no neuroprotection b. Ischemic stroke model in aged rats; no reperfusion; neuroprotection administered c. Ischemic stroke model in aged rats; reperfusion (tPA) given; no neuroprotection d. Ischemic model in young rats; no reperfusion; no neuroprotection e. Ischemic stroke model in young rats; reperfusion (tPA) given; no neuroprotection

Take `[Cl-].[Cl-].[Mg+2]` [MgCl2, magnesium chloride]: in data set [1], the “extent of neuronal injury” value is “limits the extent of neuronal injury”. Also, in data set [2], the “amount of neuronal injury” value is “alter the amount of neuronal injury” and the “entry into the cerebrospinal fluid (CSF)” value was “able to enter the cerebrospinal fluid (CSF)”. In data set [3] (intraperitoneal injection, rat model of ischemia, reduced from 165 mm^3), the “average size of infarcts” value is 122 mm^3. For the same compound, in data set [3] (intraperitoneal, 1 mmol/kg immediately after MCA occlusion), the “size of the measured infarct” value is “decreased the size of the measured infarct”.
For `O=S(=O)([O-])[O-].[Mg+2]` [magnesium sulfate], in data set [2], the “amount of neuronal injury” value is given as “alter the amount of neuronal injury” and the “entry into the cerebrospinal fluid (CSF)” value is on record as “able to enter the cerebrospinal fluid (CSF)”.
With tissue plasminogen activator [IPA], the “Infarct volume, Contra, Average” value is recorded as 1.086 in data set [4] (aged rats, untreated aged 1.412) and 1.178 in data set [4] (young rats, untreated young 1.028). Moreover, the “Infarct volume, Infarct, Average” value in data set [4] (aged rats, untreated aged 12.918) was 8.868; in data set [4] (young rats, untreated young 8.012), 4.208. In addition, the “Infarct volume, Contra” value in data set [4] (aged rats) was 1.29 and 0.87 and 0.81 and 1.39 and 1.07; in data set [4] (young rats), 1.07 and 1.28 and 1.66 and 0.52 and 1.36. Besides, the “Infarct volume, Infarct” value is 9.58 and 7.26 and 7.85 and 8.95 and 10.7 in data set [4] (aged rats); 3.75 and 4.35 and 3.64 and 4.1 and 5.2 in data set [4] (young rats). For the same compound, the “Infarct volume, Contralateral” value in data set [4] (aged rats, untreated aged 1.4) is given as 1.1; in data set [4] (young rats, untreated young 1), 1.2. The “Infarct volume, Ipsilateral” value was 8.9 in data set [4] (aged rats, untreated aged 12.9) and 4.2 in data set [4] (young rats, untreated young 8).
